From BindingDB's records for doi:10.1016/s0960-894x(01)00543-1 (Harvard Medical School, 2001) come the findings set out here.

The experiment is described as follows: Binding affinity towards Opioid receptor delta 1 in guinea pig brain membranes using [3H]naltrindole as radioligand.
As for `Oc1ccc2c(c1)C[C@@H]1[C@@H]3CCCC[C@]23CCN1C/C=C/I`, affinity was put at a Ki of 27 nM.

With `Oc1ccc2c(c1)C[C@@H]1[C@@H]3CCCCC23CCN1CCC(O)c1ccco1` (stereo partly drawn) [1-(2-furyl)-3-[5-hydroxy-(1R,9R,10R)-17-azatetracyclo[7.5.3.01,10.02,7]heptadeca-2(7),3,5-trien-17-yl]-1-propanol], the Ki came out at 29 nM.

On to `O=C(CCN1CCC23CCCC[C@H]2[C@H]1Cc1cc(O)ccc13)c1ccco1` [1-(2-furyl)-3-[5-hydroxy-(1R,9R,10R)-17-azatetracyclo[7.5.3.01,10.02,7]heptadeca-2(7),3,5-trien-17-yl]-1-propanone], for which the Ki stood at 42 nM.

In turn, `N#CCCN1CCC23CCCC[C@H]2[C@H]1Cc1cc(O)ccc13` [2-[5-hydroxy-(1R,9R,10R)-17-azatetracyclo[7.5.3.01,10.02,7]heptadeca-2(7),3,5-trien-17-yl]ethyl cyanide] displayed a Ki of 2.6 nM.

`O=C(CCN1CCC23CCCC[C@H]2[C@H]1Cc1cc(O)ccc13)c1cccs1` [3-[5-hydroxy-(1R,9R,10R)-17-azatetracyclo[7.5.3.01,10.02,7]heptadeca-2(7),3,5-trien-17-yl]-1-(2-thienyl)-1-propanone] returned a Ki of 10 nM.

In turn, `O=C(CCN1CCC23CCCC[C@H]2[C@H]1Cc1cc(O)ccc13)c1ccccc1` [3-[5-hydroxy-(1R,9R,10R)-17-azatetracyclo[7.5.3.01,10.02,7]heptadeca-2(7),3,5-trien-17-yl]-1-phenyl-1-propanone] registered a Ki of 23 nM.

Compound `N#CCCCN1CCC23CCCC[C@H]2[C@H]1Cc1cc(O)ccc13` [3-[5-hydroxy-(1R,9R,10R)-17-azatetracyclo[7.5.3.01,10.02,7]heptadeca-2(7),3,5-trien-17-yl]propyl cyanide] registered a Ki of 3.1 nM.

The compound `CCOCCN1CCC23CCCC[C@H]2[C@H]1Cc1cc(O)ccc13` [17-(2-ethoxyethyl)-(1R,9R,10R)-17-azatetracyclo[7.5.3.01,10.02,7]heptadeca-2(7),3,5-trien-5-ol] came in with an inhibitory constant (Ki) of 5.6 nM.

Turning to `Oc1ccc2c(c1)C[C@@H]1[C@@H]3CCCCC23CCN1CCC(F)(F)F` [17-(3,3,3-trifluoropropyl)-(1R,9R,10R)-17-azatetracyclo[7.5.3.01,10.02,7]heptadeca-2(7),3,5-trien-5-ol], the Ki stood at 27 nM.

In turn, `Oc1ccc2c(c1)C[C@@H]1[C@@H]3CCCCC23CCN1CCCF` [17-(3-fluoropropyl)-(1R,9R,10R)-17-azatetracyclo[7.5.3.01,10.02,7]heptadeca-2(7),3,5-trien-5-ol] yielded an inhibition constant Ki of 0.85 nM.

`Oc1ccc2c(c1)C[C@@H]1[C@@H]3CCCCC23CCN1CC1CCCCC1` [17-(N-cyclohexylmethyl)-(1R,9R,10R)-17-azatetracyclo[7.5.3.01,10.02,7]heptadeca-2(7),3,5-trien-5-ol] yielded a Ki of 69 nM.

For the compound `C=CCN1CCC23CCCC[C@H]2[C@H]1Cc1cc(O)ccc13` [17-allyl-(1R,9R,10R)-17-azatetracyclo[7.5.3.01,10.02,7]heptadeca-2(7),3,5-trien-5-ol], affinity was put at a Ki of 4.1 nM.

In the case of `Oc1ccc2c(c1)C[C@@H]1[C@@H]3CCCCC23CCN1Cc1ccccc1` [17-benzyl-(1R,9R,10R)-17-azatetracyclo[7.5.3.01,10.02,7]heptadeca-2(7),3,5-trien-5-ol], the affinity, expressed as Ki, was 420 nM.

The compound `Oc1ccc2c(c1)C[C@@H]1[C@@H]3CCCCC23CCN1CC1CCCC1` [17-cyclopentylmethyl-17-azatetracyclo[7.5.3.01,10.02,7]heptadeca-2(7),3,5-trien-5-ol] yielded an inhibition constant (Ki) of 6.9 nM.

The compound `Oc1ccc2c(c1)C[C@@H]1[C@@H]3CCCCC23CCN1CCc1ccccc1` [17-phenethyl-(1R,9R,10R)-17-azatetracyclo[7.5.3.01,10.02,7]heptadeca-2(7),3,5-trien-5-ol] had a Ki of 3.1 nM.

On to `CC(C)CN1CCC23CCCC[C@H]2[C@H]1Cc1cc(O)ccc13` [MCL-108], for which the affinity, expressed as Ki, was 5.6 nM.

For the compound `COCCN1CCC23CCCC[C@H]2[C@H]1Cc1cc(O)ccc13` [MCL-110], the Ki turned out to be 0.54 nM.

`Oc1ccc2c(c1)C[C@@H]1[C@@H]3CCCCC23CCN1Cc1ccco1` [MCL-119] came in with an inhibition constant Ki of 8.5 nM.

As for `Oc1ccc2c(c1)C[C@@H]1[C@@H]3CCCCC23CCN1CCC(O)c1ccccc1` (stereo partly specified) [MCL-121], the Ki was found to be 130 nM.

In turn, `Oc1ccc2c(c1)C[C@@H]1[C@@H]3CCCCC23CCN1CCC(O)c1cccs1` (stereo partly specified) [MCL-122] showed an inhibitory constant (Ki) of 110 nM.

As for `Oc1ccc2c(c1)C[C@@H]1[C@@H]3CCCCC23CCN1CCOc1ccccc1` [MCL-127], the Ki is 33 nM.
